Test system: MelaKuits reconstructed human pigmented LSE model
Experiment: Inhibition of melanin in a living skin-equivalent (LSE) model
Type: cell-based
Conditions: for Melanin content as % of control: UVB-exposed pigmented LSE, the lower the better
Method: Details of the test are as follows:
Materials: • MelaKuits®, a reconstructed human pigmented LSE model, derived from 3D culture of normal human epidermal keratinocytes and melanocytes from Asian donors.
The pigmented LSE model was exposed to UVB (50 mJ/cm^2) for seven consecutive days day at periodic intervals of 24 hours to stimulate the synthesis of melanin. The extracts were applied topically on each LSE model on day 4 and day 6 with an interval of 48 hours for refreshing. For comparison, a blank experiment was carried out in which the LSE was neither exposed to UV radiation nor was any extract applied thereon. A control experiment was also carried out in which the LSE model was exposed to UV radiation, but no other treatment was followed.
On day 8, the appearance of each LSE model was assessed by photographing them. Thereafter, all the models subjected to the test were separated from their respective inserts and placed on a white plastic plate with the stratum corneum side facing up. The luminance (L*) value was read using a spectrophotometer CM700 (Konica-Minolta). For each model, the luminance was measured thrice, and the mean value was calculated for comparison.

Row | Compound | Melanin content as % of control (75 μM, topical on day 4 and day 6, read on day 8) | Effectiveness in reducing melanin content, in words (positive control, Table 2) | Melanin content as % of control (2.5 μM)
1 | O=c1cc(CO)occ1O [Kojic acid] | 77.4 % of control | most effective ingredient | –
2 | CC1(C)C=Cc2c(ccc3c2OC[C@@H](c2ccc(O)cc2O)C3)O1 [Glabridin] | – | – | 97.1 % of control

Source: patent US11291624B2, “Compositions comprising active botanical ingredients” (CONOPCO, INC., priority 2018, dated 2022)
